Results as given in paper PMC10298275, “Antiproliferative Activity and Impact on Human Gut Microbiota of New O-Alkyl Derivatives of Naringenin and Their Oximes” (International Journal of Molecular Sciences, 2023).
Values after ≈ are worked out from the molar mass of the structure shown. Like-named read-outs stand apart in the source and are kept apart here.

Columns and labels:
SRB assay, cytotoxicity [1] = format: cell-based, human; settings: human, HT-29 cells; HT-29, SRB, 24 h exposure, three independent repeats; read-out: Cytotoxicity (IC50 ± SD)
Method: (§1) The HT-29 cells (ATCC, Manassas, VA, USA) were cultured within α-MEM (IIET PAS, Wrocław, Poland) supplemented with 10% fetal bovine serum (Sigma, St. Louis, MO, USA), antimycotic (100 μg/mL penicillin, 100 μg/mL streptomycin and 0.25 μg/mL amphotericin) (Sigma) and 2 mM glutamine (Sigma). The 3T3-L1 cells (ATCC, Manassas, VA, USA) were cultivated using DMEM high-glucose medium (IIET PAS, Wrocław, Poland) supplemented as above. Both cell lines were cultured at 37 °C in an atmosphere of 5% CO2.
(§2) The sulforhodamine B (SRB) assay was performed according to a previously published protocol. Briefly, 1 × 10^4 HT-29 or 5 × 10^3 3T3-L1 cells were seeded into 96-well plates. After attaching to the plate surface, the cells were incubated with 100, 75, 50, 25, 10 or 1 µg/mL of the investigated compounds for 24 h. After this time, proteins were precipitated with trichloroacetic acid and stained with SRB. The absorbance was measured at 560 nm using a GloMax Discover Microplate Reader (Promega, Madison, WI, USA).

[2] = tested on: caspase 3/7 in HT-29 cells; assay: Caspase-Glo 3/7 Assay; format: cell-based, human; settings: HT-29, 50 µg/mL, measured at 6, 12, 24 and 48 h
Method: The activity of two effector caspases 3 and 7 was analyzed using the Caspase-Glo 3/7 Assay (Promega) according to the recommendations of the manufacturer. The cells were seeded at a density of 1 × 10^4 per well for the test on a 96-well plate. Then, cells were incubated with A2, B2, A9, B9 and NG at a concentration of 50 µg/mL for 48 h. Half an hour before each measurement of caspase activity, an equal volume of Caspase-Glo 3/7 substrate solution was added to cells. The luminescence signals were detected using a GloMax Discover Microplate Reader at the 6th, 12th, 24th and 48th hours of the experiment. The reactions for each sample were repeated in triplicate and presented as the mean value.

HT-29 cells [3] = assay: RealTime-Glo Annexin V Apoptosis and Necrosis Assay; format: cell-based, human; settings: HT-29, during 12 h incubation, applied concentrations 10-100 µg/mL
Method: The process of apoptosis was determined using the RealTime-Glo Annexin V Apoptosis and Necrosis Assay (Promega) according to the manufacturer’s protocol. Briefly, 1 × 10^4 HT-29 cells were seeded into a single well of a 96-well plate. After overnight incubation, the cells were treated with 10, 25, 50 and 100 µg/mL of the investigated compounds and detection reagent for 24 h. As a negative control, untreated cells were used. The luminescence, fluorescence and OD525 signals were detected at each hour of the first 12 h of incubation. The end measurement was performed at the 24th hour of the experiment. All samples were prepared in triplicate, and then their means were calculated.

SRB assay, cytotoxicity [4] = format: cell-based, mouse; settings: mouse, 3T3-L1 cells; 3T3-L1, SRB, 24 h exposure, three independent repeats; read-out: Cytotoxicity (IC50 ± SD)
Method: as §1, §2

[5] = tested on: Staphylococcus aureus ATCC 25923; assay: MBC assay; format: cell-based; settings: Staphylococcus aureus, ATCC25923; S. aureus ATCC 25923; read-out: MBC
Method: (§3) The minimum bactericidal concentration (MBC) was tested for all naringenin derivatives. First, 10 µL of medium was taken from the plate, on which the MIC was determined for the MIC value, the value below and the two values above. This volume was transferred to TSA or MC agar. After 18–24 h (depending on strain) incubation at 37 °C, colonies were counted. The concentration of test compounds at which no bacterial growth was observed was defined as the MBC value. Each experiment was repeated 3 times.

Escherichia coli K12 [6] = assay: MBC assay; format: cell-based; settings: E. coli K12
Method: as §3

[7] = tested on: Enterococcus faecalis ATCC 29212; assay: MBC assay; format: cell-based; settings: Enterococcus faecalis, ATCC29212; E. faecalis ATCC 29212; read-out: MBC
Method: as §3

[8] = tested on: Staphylococcus aureus ATCC 25923; assay: MIC, microdilution method; format: cell-based; settings: S. aureus ATCC 25923, MHB, 18 h, 37 °C, tested 512 to 1 µg/mL
Method: (§4) Non-pathogenic reference strains representing the intestinal microbiome were used for the studies: Escherichia coli K12, Staphylococcus aureus ATCC 25923 and Enterococcus faecalis ATCC 29212. All strains were obtained from the collection of the Department of Microbiology at the Medical University of Wrocław.
(§5) The strains were received from the museum (−80 °C) and grown in tryptic soy broth (TSB, OXOID, Basingstoke, UK) under continuous shaking conditions (MaxQTM6000 incubator shaker, Thermo Scientific, Waltham, MA, USA) at 125 rpm at 37 °C. Then, they were moved to the growth media, namely tryptic soy agar (TSA, OXOID, Basingstoke, UK) and MacConkey agar (MC, Millipore, Darmstadt, Germany) for S. aureus or E. faecalis and E. coli, respectively.
(§6) A fresh 18–24 h culture was used for each study. For this purpose, a culture with a density of 1.5 × 10^8 CFU/mL in Mueller–Hinton broth (MHB, OXOID, Basingstoke, UK) was prepared and used for further microdilution studies.
(§7) The antimicrobial activity of the O-alkyl derivatives of naringenin and their oximes was tested in vitro using the microdilution method, showing the minimum inhibitory concentration (MIC), in accordance with the recommendations of the European Antimicrobial Susceptibility Testing Committee EUCAST [44]. MICs were determined in 96-well microdilution plates. The tests were carried out in MHB medium. The O-alkyl derivatives of naringenin and their oximes were tested in the concentration range of 512 to 1 µg/mL in a geometric process in MHB medium. The final concentration of the test strains in each test well was 5 × 10^5 CFU/mL. MICs were read after 18 h (for E. coli and S. aureus) and 24 h (for E. faecalis) incubation at 37 °C.
(§8) A strain growth control (tested strain in medium), background control for tested compounds (naringenin derivatives in MHB), medium control (only pure MHB) and compound solvent control (DMSO at test compound concentration, strain and MHB) were set for each experiment. Each test was set up with three independent experiments, each as three separate replicates.
(§9) The […], OD600, was measured in a plate reader (ASYS UVM340, BIOCHROM Ltd., Cambridge, UK). The background control of the tested compounds and the clean medium were included in the absorbance results.

Escherichia coli K12 [9] = assay: MIC, microdilution method; format: cell-based; settings: E. coli K12, MHB, 18 h, 37 °C, tested 512 to 1 µg/mL
Method: as §4, §5, §6, §7, §8, §9

[10] = tested on: Enterococcus faecalis ATCC 29212; assay: MIC, microdilution method; format: cell-based; settings: E. faecalis ATCC 29212, MHB, 24 h, 37 °C, tested 512 to 1 µg/mL
Method: as §4, §5, §6, §7, §8, §9

HT-29 cells [11] = assay: MTT assay, cell viability; format: cell-based, human; settings: HT-29, highest concentration 100 µg/mL, 24 h
Method: as §1
First, 1 × 10^4 HT-29 cells or 5 × 10^3 3T3-L1 cells were seeded into a 96-well plate and incubated for one night. Then, cells were treated with different concentrations of the investigated compounds within 24 h. Afterwards, the medium was replaced with a fresh medium containing 0.5 mg/mL of 3-(4,5-dimethylthiazol-2-yl)-2,5-diphenyl-2H-tetrazolium bromide (MTT, Sigma) and incubated for 2 h at 37 °C. After removing the medium, the formazan salts were dissolved in dimethyl sulfoxide (DMSO, Sigma), and the absorbance of the solution was measured at 560 nm using a plate reader.

HT-29 cells [12] = assay: SRB assay, cytotoxicity; format: cell-based, human; settings: HT-29, SRB, up to 100 µg/mL
Method: as §1, §2

[13] = Escherichia coli, read-out: MBC
[14] = Staphylococcus aureus, ATCC25923, read-out: MIC
[15] = Escherichia coli, read-out: MIC
[16] = Enterococcus faecalis, ATCC29212, read-out: MIC

Row | SMILES | melting point [°C] | MIC [8] | MIC [8, 14] [µg/mL] | MIC (Escherichia coli K12 [9]; [15]) [µg/mL] | MIC [10] | MIC [10, 16] [µg/mL] | MIC (Escherichia coli K12 [9]) [µg/mL] | IC50 at 24 h (SRB assay, cytotoxicity [1]) [µg/mL] | caspase 3/7 activation [2] | annexin V luminescence and necrosis fluorescence signals versus untreated cells (HT-29 cells [3]) | IC50 at 24 h (SRB assay, cytotoxicity [4]) [µg/mL] | MBC [5] [µg/mL] | MBC (Escherichia coli K12 [6]; [13]) [µg/mL] | MBC [7] [µg/mL] | effect on colon adenocarcinoma cells (viability, MTT) (HT-29 cells [11]) | effect on the proliferation of the HT-29 cell line (HT-29 cells [12]) | MBC (Escherichia coli K12 [6]) [µg/mL]
1 | CCCCCCCOc1ccc([C@@H]2CC(=O)c3c(O)cc(OCCCCCCC)cc3O2)cc1 [A4, 7,4′-Di-O-heptylnaringenin] | 74 to 75 | >512 (>512) µg/mL | > 512 | > 512 |  | 32 (≈ 68.3 µM) |  | > 100 |  |  | > 100 | > 512 | > 512 | > 512 | weak | no effect on the proliferation | 
2 | CCCCCCOc1ccc([C@@H]2CC(=O)c3c(O)cc(OCCCCCC)cc3O2)cc1 [A2, 7,4′-di-O-hexylnaringenin] |  | >512 (>512) µg/mL | > 512 | > 512 |  | 64 (≈ 145 µM) |  | > 100 | neither membrane switching of phosphatidylserine nor caspase activation was observed | both signals were similar to those for untreated cells | > 100 | > 512 | > 512 | > 512 | weak |  | 
3 | CCCCCCOc1ccc([C@@H]2CC(=NO)c3c(O)cc(OCCCCCC)cc3O2)cc1 [B2, 7,4′-di-O-hexylnaringenin oxime] |  |  | > 512 | > 512 | >512 (>512) µg/mL | > 512 |  | 49.8 ± 1.63 (≈ 109 µM) | neither membrane switching of phosphatidylserine nor caspase activation was observed | both signals were similar to those for untreated cells | 10.1 ± 6.49 (≈ 22.1 µM) | > 512 | > 512 | > 512 |  |  | 
4 | CCCCCCCCOc1ccc([C@@H]2CC(=O)c3c(O)cc(OCCCCCCCC)cc3O2)cc1 [A6, 7,4′-Di-O-octylnaringenin] | 60 to 61 | >512 (>512) µg/mL | > 512 | > 512 |  | 32 (≈ 64.4 µM) |  | > 100 |  |  | > 100 | > 512 | > 512 | > 512 | weak | no effect on the proliferation | 

Now from value to compound, other results behind:

Row | melting point [°C] | MIC [8] | MIC [8, 14] [µg/mL] | MIC (Escherichia coli K12 [9]; [15]) [µg/mL] | MIC [10] | MIC [10, 16] [µg/mL] | MIC (Escherichia coli K12 [9]) [µg/mL] | SMILES | IC50 at 24 h (SRB assay, cytotoxicity [1]) [µg/mL] | caspase 3/7 activation [2] | annexin V luminescence and necrosis fluorescence signals versus untreated cells (HT-29 cells [3]) | IC50 at 24 h (SRB assay, cytotoxicity [4]) [µg/mL] | MBC [5] [µg/mL] | MBC (Escherichia coli K12 [6]; [13]) [µg/mL] | MBC [7] [µg/mL] | effect on colon adenocarcinoma cells (viability, MTT) (HT-29 cells [11]) | effect on the proliferation of the HT-29 cell line (HT-29 cells [12]) | MBC (Escherichia coli K12 [6]) [µg/mL]
5 | 103 to 104 | >512 (>512) µg/mL | > 512 | > 512 | 512 (>512) µg/mL | 512 (≈ 1200 µM) |  | CCCCCCCCCCCOc1cc(O)c2c(c1)O[C@H](c1ccc(O)cc1)CC2=O [A9, 7-O-Undecylnaringenin] | 17.9 ± 0.65 (≈ 41.8 µM) | significant caspase 3/7 activation was also detected | both signals were similar to those for untreated cells | 10.2 ± 0.2 (≈ 23.8 µM) | > 512 | > 512 | > 512 | completely inhibited |  | 
6 |  |  | 512 (≈ 1880 µM) | 512 (≈ 1880 µM) |  | > 512 | 512 (≈ 1880 µM) | O=C1C[C@@H](c2ccc(O)cc2)Oc2cc(O)cc(O)c21 [NG, naringenin] | > 100 | neither membrane switching of phosphatidylserine nor caspase activation was observed | both signals were similar to those for untreated cells | > 100 | > 512 | > 512 | > 512 | weak |  | > 512
7 | 63 to 64 |  | 256 (≈ 441 µM) | > 512 |  | 32 (≈ 55.1 µM) |  | CCCCCCCCCCCOc1ccc([C@@H]2CC(=O)c3c(O)cc(OCCCCCCCCCCC)cc3O2)cc1 [A10, 7,4′-Di-O-undecylnaringenin] | > 100 |  |  | > 100 | > 512 | > 512 | > 512 | weak | no effect on the proliferation | 
